Test: mn = molality of the nth substance listed, in mol/kg
Conditions: 101 kPa, Liquid

O=C(O)/C=C\C(=O)O [cis-1,4-butenedioic acid] + O
mass density [kg/m3]
Conditions | 288.15 K | 293.15 K | 298.15 K | 303.15 K | 308.15 K | 313.15 K | 318.15 K | 323.15 K | 328.15 K | 333.15 K
m1 = 0.09831 | 1003.24 | 1002.29 | 1001.04 | 999.59 | 997.91 | 996.07 | 994.03 | 991.81 | 989.41 | 986.88
m1 = 0.4902 | 1018.5 | 1017.26 | 1015.79 | 1014.1 | 1012.25 | 1010.18 | 1007.98 | 1005.58 | 1003.01 | 1000.36
m1 = 0.979 | 1035.99 | 1034.47 | 1032.74 | 1030.81 | 1028.74 | 1026.46 | 1024.06 | 1021.47 | 1018.75 | 1015.92
